# Legend:
# [1] = Plasma hydrolysis of (−) CPTA prodrug esters in human plasma (Example 21); format: in vitro ADME; details: human plasma (heparinized, pooled), 125 or 250 μM, 37° C., hydrolysis to (−) CPTA; read-out: Plasma T1/2 (converted)
# Experimental: This example illustrates the plasma hydrolysis of various prodrug esters of the (S)-enantiomer of CPTA at physiological conditions. Hydrolysis was monitored and analyzed by HPLC. The hydrolytic product was identified by comparison to authentic (−) CPTA and the hydrolytic rates were calculated. [drawing 83]
# Human plasma (heparinized, pooled) was obtained from Golden West Biololgicals Inc., USA; Plasma incubation was carried out in a Water Bath Shaker (New Brunswick Scientific, Inc.); Sample analyses were carried out on Agilent HPLC 1100 system.
# Prepare 31.25 or 62.5 mM prodrug stock solutions in 100% DMSO. Add 4 μL of 31.25 or 62.5 mM prodrug stock solutions to 1.0 mL of plasma in a microcentrifuge tube to make plasma concentration at 125 or 250 μM, mix gently. Aliquots of 50 μL are transferred to 15 microcentrifuge vials. Three samples are immediately removed to a freezer at about −80° C. (0 time point), the remaining samples are incubated in a bath shaker at 37° C. Three samples are removed at 30 min, 2, 7 and 24 hr, and stored at −80° C. until analysis. The relative concentrations of MBX-compounds are determined by HPLC methods. If there are enough data points, the hydrolytic rate can be calculated using WinNonlin software. Table 10 provides a summary of plasma half-lives of some pro-drug esters and FIGS. 20A-20G illustrate the hydrolytic curves of those prodrug esters.
# C57BL/6J ob/ob mice = assay: Glucose lowering activity of halofenate analogs in ob/ob mice (Example 12); format: in vivo; details: for Predose Glucose: baseline before dosing
# CYP2C19 = CYP2C19 (Homo sapiens, UniProt P33261); assay: Cytochrome P450 isoform inhibition in human hepatic microsomes, S-mephenytoin (Example 18); format: in vitro ADME; details: both sexes, human, pooled human hepatic microsomes, probe S-mephenytoin 50 μM; positive control 10 μM
# Chain of CYP2C19 (P33261 whole entry, canonical isoform): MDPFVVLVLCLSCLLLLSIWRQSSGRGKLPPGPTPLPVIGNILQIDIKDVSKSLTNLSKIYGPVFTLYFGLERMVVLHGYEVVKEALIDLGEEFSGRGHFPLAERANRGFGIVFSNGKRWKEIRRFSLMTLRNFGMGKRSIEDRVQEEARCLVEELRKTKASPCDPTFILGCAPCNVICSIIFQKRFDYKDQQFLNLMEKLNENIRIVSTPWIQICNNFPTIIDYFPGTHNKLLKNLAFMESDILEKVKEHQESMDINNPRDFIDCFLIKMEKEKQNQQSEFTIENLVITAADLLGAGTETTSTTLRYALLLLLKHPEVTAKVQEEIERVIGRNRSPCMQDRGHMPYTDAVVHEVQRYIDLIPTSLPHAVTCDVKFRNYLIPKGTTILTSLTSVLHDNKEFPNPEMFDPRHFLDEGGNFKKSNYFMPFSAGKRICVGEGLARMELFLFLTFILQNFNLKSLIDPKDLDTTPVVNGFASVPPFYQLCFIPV
# CYP2C9 = CYP2C9 (Homo sapiens, UniProt P11712)
# Chain of CYP2C9 (P11712 whole entry): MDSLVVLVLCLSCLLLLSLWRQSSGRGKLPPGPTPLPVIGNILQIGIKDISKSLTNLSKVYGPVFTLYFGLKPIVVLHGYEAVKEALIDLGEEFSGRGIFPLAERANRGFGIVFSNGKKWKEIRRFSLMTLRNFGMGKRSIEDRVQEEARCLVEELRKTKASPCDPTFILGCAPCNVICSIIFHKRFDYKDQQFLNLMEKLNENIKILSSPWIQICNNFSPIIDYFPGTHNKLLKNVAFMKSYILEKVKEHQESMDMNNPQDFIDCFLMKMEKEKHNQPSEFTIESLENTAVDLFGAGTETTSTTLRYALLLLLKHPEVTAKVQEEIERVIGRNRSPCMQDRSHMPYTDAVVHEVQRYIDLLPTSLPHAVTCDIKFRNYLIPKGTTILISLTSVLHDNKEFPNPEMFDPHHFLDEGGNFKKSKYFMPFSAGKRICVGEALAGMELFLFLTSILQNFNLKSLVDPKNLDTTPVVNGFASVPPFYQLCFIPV
structure (smiles),measurement,setting,value
"O=C(OCC(=O)N1CCOCC1)C(Oc1cccc(C(F)(F)F)c1)c1ccc(Cl)cc1 (single isomer, unassigned) [Compound 19.5]",half-life,[1],< 0.5 h
CN(C)C(=O)COC(=O)C(Oc1cccc(C(F)(F)F)c1)c1ccc(Cl)cc1 (racemic) [(±)Analog 38],6 hours Glucose,C57BL/6J ob/ob mice; 125 mg/kg oral once a day,303.2 ± 18.2 mg/dL
same,30 hours Glucose,C57BL/6J ob/ob mice; 125 mg/kg oral once a day,245.6 ± 15.6 mg/dL
same,54 hours Glucose,C57BL/6J ob/ob mice; 125 mg/kg oral once a day,243.1 ± 10.6 mg/dL
same,Predose Glucose,C57BL/6J ob/ob mice; 125 mg/kg group,329.4 ± 18.9 mg/dL
"CN(C)C(=O)COC(=O)C(Oc1cccc(C(F)(F)F)c1)c1ccc(Cl)cc1 (single isomer, unassigned; (-)) [(−)Analog 38]",Predose Glucose,C57BL/6J ob/ob mice; 150 mg/kg group,373.4 ± 16.1 mg/dL
same,6 hours Glucose,C57BL/6J ob/ob mice; single oral dose 150 mg/kg,251.2 ± 23.6 mg/dL
same,time points with significantly reduced plasma glucose,C57BL/6J ob/ob mice; single oral dose 150 mg/kg,6 h
"C=CCOC(=O)C(Oc1cccc(C(F)(F)F)c1)c1ccc(Cl)cc1 (single isomer, unassigned) [Compound 19.1]",half-life,[1],5.5 h
"NC(=O)COC(=O)C(Oc1cccc(C(F)(F)F)c1)c1ccc(Cl)cc1 (single isomer, unassigned; (-)) [(−)Analog 37]",Predose Glucose,C57BL/6J ob/ob mice; 150 mg/kg group,373.4 ± 16.1 mg/dL
same,6 hours Glucose,C57BL/6J ob/ob mice; single oral dose 150 mg/kg,271.7 ± 22.5 mg/dL
same,time points with significantly reduced plasma glucose,C57BL/6J ob/ob mice; single oral dose 150 mg/kg,6 h
"CC(OC(=O)OC1CCCCC1)OC(=O)C(Oc1cccc(C(F)(F)F)c1)c1ccc(Cl)cc1 (single isomer, unassigned; (-)) [Compound 19.27, (−)-1-(cyclohexyloxycarbonyloxy)ethyl 4-chloro-alpha-(3-trifluoromethylphenoxy)benzeneacetate]",half-life,[1],< 1 h
"COCC(=O)NCCOC(=O)C(Oc1cccc(C(F)(F)F)c1)c1ccc(Cl)cc1 (single isomer, unassigned) [Compound 19.17]",half-life,[1],< 1 h
"O=C(NCCOC(=O)C(Oc1cccc(C(F)(F)F)c1)c1ccc(Cl)cc1)c1ccccc1 (single isomer, unassigned) [Compound 19.4]",half-life,[1],< 1 h
"CS(=O)(=O)NCCOC(=O)C(Oc1cccc(C(F)(F)F)c1)c1ccc(Cl)cc1 (single isomer, unassigned) [Compound 19.10]",half-life,[1],< 1 h
"O=C(OCC(=O)N1CCC1)C(Oc1cccc(C(F)(F)F)c1)c1ccc(Cl)cc1 (single isomer, unassigned) [Compound 19.13]",half-life,[1],< 0.5 h
"O=C(OCc1ccccc1)C(Oc1cccc(C(F)(F)F)c1)c1ccc(Cl)cc1 (single isomer, unassigned; (-)) [Compound 19.6, (−)-benzyl 4-chloro-alpha-(3-trifluoromethylphenoxy)benzeneacetate]",half-life,[1],6.3 h
"O=C(Oc1ccccc1)C(Oc1cccc(C(F)(F)F)c1)c1ccc(Cl)cc1 (single isomer, unassigned) [Compound 19.25]",half-life,[1],< 0.5 h
"CCOC(=O)COC(=O)C(Oc1cccc(C(F)(F)F)c1)c1ccc(Cl)cc1 (single isomer, unassigned) [Compound 19.12]",half-life,[1],< 0.5 h
"Cc1oc(=O)oc1COC(=O)C(Oc1cccc(C(F)(F)F)c1)c1ccc(Cl)cc1 (single isomer, unassigned) [Compound 19.24]",half-life,[1],< 0.5 h
"COC(=O)C1CCCN1C(=O)COC(=O)C(Oc1cccc(C(F)(F)F)c1)c1ccc(Cl)cc1 (single isomer, unassigned) [Compound 19.19]",half-life,[1],< 0.5 h
"NC(=O)C1CCCN1C(=O)COC(=O)C(Oc1cccc(C(F)(F)F)c1)c1ccc(Cl)cc1 (single isomer, unassigned) [Compound 19.16]",half-life,[1],< 0.5 h
"CC(C)C(=O)NCCOC(=O)C(Oc1cccc(C(F)(F)F)c1)c1ccc(Cl)cc1 (single isomer, unassigned) [Compound 19.15]",half-life,[1],< 1 h
NC(=O)COC(=O)C(Oc1cccc(C(F)(F)F)c1)c1ccc(Cl)cc1 (racemic) [(±)Analog 37],6 hours Glucose,C57BL/6J ob/ob mice; 125 mg/kg oral once a day,345.4 ± 19.7 mg/dL
same,30 hours Glucose,C57BL/6J ob/ob mice; 125 mg/kg oral once a day,312.5 ± 21.7 mg/dL
same,54 hours Glucose,C57BL/6J ob/ob mice; 125 mg/kg oral once a day,285.1 ± 14.7 mg/dL
same,time points with significantly lowered plasma glucose,C57BL/6J ob/ob mice; 125 mg/kg oral once a day,54 h
same,Predose Glucose,C57BL/6J ob/ob mice; 125 mg/kg group,387.4 ± 18.8 mg/dL
"C#CCOC(=O)C(Oc1cccc(C(F)(F)F)c1)c1ccc(Cl)cc1 (single isomer, unassigned; (-)) [Compound 19.3, (−)-propargyl 4-chloro-alpha-(3-trifluoromethylphenoxy)benzeneacetate]",half-life,[1],< 1 h
"O=C(NCCOC(=O)C(Oc1cccc(C(F)(F)F)c1)c1ccc(Cl)cc1)c1cccnc1 (single isomer, unassigned) [Compound 19.20]",half-life,[1],< 0.5 h
"CCNC(=O)NCCOC(=O)C(Oc1cccc(C(F)(F)F)c1)c1ccc(Cl)cc1 (single isomer, unassigned) [Compound 19.22]",half-life,[1],< 1 h
"O=C(OCCO)C(Oc1cccc(C(F)(F)F)c1)c1ccc(Cl)cc1 (single isomer, unassigned) [Compound 19.14]",half-life,[1],< 2 h
"CCOC(=O)C(Oc1cccc(C(F)(F)F)c1)c1ccc(Cl)cc1 (single isomer, unassigned) [Compound 19.7]",half-life,[1],< 7 h
"COc1ccc2[nH]c([S+]([O-])Cc3ncc(C)c(OC)c3C)nc2c1 (stereo not shown) [OMP, omeprazole, reference compound]","inhibition at 30 min, 10 μM",CYP2C19,50%
"CC(=O)OCCOC(=O)C(Oc1cccc(C(F)(F)F)c1)c1ccc(Cl)cc1 (single isomer, unassigned) [Compound 19.23]",half-life,[1],< 1 h
"CN(C)C(=O)COC(=O)C(Oc1cccc(C(F)(F)F)c1)c1ccc(Cl)cc1 (single isomer, unassigned) [Compound 19.11]",half-life,[1],< 0.5 h
"O=C(NCCOC(=O)C(Oc1cccc(C(F)(F)F)c1)c1ccc(Cl)cc1)c1cccs1 (single isomer, unassigned) [Compound 19.2]",half-life,[1],< 1 h
"Nc1ccc(S(=O)(=O)Nc2ccnn2-c2ccccc2)cc1 [SFZ, sulfaphenazole, reference compound]",Tolbutamide 4-OH TB Production,CYP2C9,BQL
"COCCOC(=O)C(Oc1cccc(C(F)(F)F)c1)c1ccc(Cl)cc1 (single isomer, unassigned; (-)) [Compound 19.8, (−)-2-methoxyethyl 4-chloro-alpha-(3-trifluoromethylphenoxy)benzeneacetate]",half-life,[1],< 2 h
"O=C(NCCOC(=O)C(Oc1cccc(C(F)(F)F)c1)c1ccc(Cl)cc1)c1ccccc1 (single isomer, unassigned; (-)) [(−)Analog 36]",Predose Glucose,C57BL/6J ob/ob mice; 150 mg/kg group,373.2 ± 15.5 mg/dL
same,6 hours Glucose,C57BL/6J ob/ob mice; single oral dose 150 mg/kg,281.1 ± 18.2 mg/dL
same,time points with significantly reduced plasma glucose,C57BL/6J ob/ob mice; single oral dose 150 mg/kg,6 h
"CC(=O)NCCOC(=O)C(Oc1cccc(C(F)(F)F)c1)c1ccc(Br)cc1 (single isomer, unassigned; (-)) [(−)Analog 29]",Predose Glucose,C57BL/6J ob/ob mice; 150 mg/kg group,372.2 ± 17.1 mg/dL
same,6 hours Glucose,C57BL/6J ob/ob mice; single oral dose 150 mg/kg,333.5 ± 16.1 mg/dL
same,time points with significantly reduced plasma glucose,C57BL/6J ob/ob mice; single oral dose 150 mg/kg,6 h
"CCOC(=O)NCCOC(=O)C(Oc1cccc(C(F)(F)F)c1)c1ccc(Cl)cc1 (single isomer, unassigned; (-)) [Compound 19.9, (−)-2-ethoxycarbonylaminoethyl 4-chloro-alpha-(3-trifluoromethylphenoxy)benzeneacetate]",half-life,[1],< 1 h
"O=C(NCCOC(=O)C(Oc1cccc(C(F)(F)F)c1)c1ccc(Cl)cc1)c1ccncc1 (single isomer, unassigned) [Compound 19.26]",half-life,[1],< 1 h
"O=C(NCCOC(=O)C(Oc1cccc(C(F)(F)F)c1)c1ccc(Cl)cc1)OCc1ccccc1 (single isomer, unassigned) [Compound 19.21]",half-life,[1],< 2 h
CC(=O)NCCOC(=O)C(Oc1cccc(C(F)(F)F)c1)c1ccc(Br)cc1 (racemic) [(±)Analog 29],6 hours Glucose,C57BL/6J ob/ob mice; 125 mg/kg oral once a day,299.7 ± 24.5 mg/dL
same,30 hours Glucose,C57BL/6J ob/ob mice; 125 mg/kg oral once a day,237.4 ± 14.9 mg/dL
same,54 hours Glucose,C57BL/6J ob/ob mice; 125 mg/kg oral once a day,293.3 ± 9.7 mg/dL
same,Predose Glucose,C57BL/6J ob/ob mice; 125 mg/kg group,387.1 ± 16.0 mg/dL
O=C(NCCOC(=O)C(Oc1cccc(C(F)(F)F)c1)c1ccc(Cl)cc1)c1ccccc1 (racemic) [(±)Analog 36],6 hours Glucose,C57BL/6J ob/ob mice; 125 mg/kg oral once a day,300.5 ± 27.3 mg/dL
same,30 hours Glucose,C57BL/6J ob/ob mice; 125 mg/kg oral once a day,249.7 ± 8.6 mg/dL
same,54 hours Glucose,C57BL/6J ob/ob mice; 125 mg/kg oral once a day,272.2 ± 18.4 mg/dL
same,Predose Glucose,C57BL/6J ob/ob mice; 125 mg/kg group,329.7 ± 17.6 mg/dL
"NCC(=O)OCCOC(=O)C(Oc1cccc(C(F)(F)F)c1)c1ccc(Cl)cc1 (single isomer, unassigned) [Compound 19.28]",half-life,[1],< 0.5 h
CC(=O)NCCOC(=O)C(Oc1cccc(C(F)(F)F)c1)c1ccc(F)cc1 (racemic) [(±)Analog 14],6 hours Glucose,C57BL/6J ob/ob mice; 125 mg/kg oral once a day,328.9 ± 34.1 mg/dL
same,30 hours Glucose,C57BL/6J ob/ob mice; 125 mg/kg oral once a day,267.0 ± 21.3 mg/dL
same,54 hours Glucose,C57BL/6J ob/ob mice; 125 mg/kg oral once a day,293.0 ± 29.4 mg/dL
same,Predose Glucose,C57BL/6J ob/ob mice; 125 mg/kg group,361.0 ± 17.1 mg/dL
CCCCOC(=O)C(Oc1cccc(C(F)(F)F)c1)c1ccc(Cl)cc1 (racemic) [(±)Analog 33],6 hours Glucose,C57BL/6J ob/ob mice; 125 mg/kg oral once a day,227.5 ± 13.2 mg/dL
same,30 hours Glucose,C57BL/6J ob/ob mice; 125 mg/kg oral once a day,298.0 ± 15.3 mg/dL
same,54 hours Glucose,C57BL/6J ob/ob mice; 125 mg/kg oral once a day,286.6 ± 9.9 mg/dL
same,Predose Glucose,C57BL/6J ob/ob mice; 125 mg/kg group,292.0 ± 19.1 mg/dL
"O=C(OCc1cccnc1)C(Oc1cccc(C(F)(F)F)c1)c1ccc(Cl)cc1 (single isomer, unassigned) [Compound 19.18]",half-life,[1],< 1 h

# Source: patent publication US20040039053A1, “Use of(-) (3-halomethylphenoxy) (4-halophenyl) acetic acid derivatives for treatment of insulin resistance, type 2 diabetes, hyperlipidemia and hyperuricemia” (priority 2000, published 2004)
